Measured values as given in PubChem BioAssay (NCI).
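96-well plates; 48 h exposure; 5 concentrations. Endpoints by linear interpolation between flanking doses. Not reached: highest tested concentration assigned. The concentration for 50% growth inhibition is given as GI50. TGI marks complete inhibition of growth.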

Key:
Experiment in all cases: inhibition of tumour cell growth, NCI panel, 48 h
A498 renal = tested on: A498 renal
T-47D breast = tested on: T-47D breast
BT-549 breast = tested on: BT-549 breast
SNB-75 CNS = tested on: SNB-75 CNS
SK-MEL-28 melanoma = tested on: SK-MEL-28 melanoma
SR leukemia = tested on: SR leukemia
HCC-2998 colon = tested on: HCC-2998 colon

Compound | TGI (A498 renal) [µM] | TGI (T-47D breast) [µM] | TGI (BT-549 breast) [µM] | TGI (SNB-75 CNS) [µM] | TGI (SK-MEL-28 melanoma) [µM] | TGI (SR leukemia) [µM] | TGI (HCC-2998 colon) [µM] | GI50 (SNB-75 CNS) [µM] | GI50 (A498 renal) [µM] | GI50 (T-47D breast) [µM] | GI50 (HCC-2998 colon) [µM]
CCOC(=O)c1c(NC(=S)Nc2ccc(C)cc2)sc2c1CCN(C)C2 | > 100 | > 100 | > 100 | 0.0946 | – | – | – | – | – | – | –
CNc1ccc2c(c1)Cc1ccccc1-2 | 71.1 | > 100 | – | > 100 | > 100 | 91.2 | > 100 | – | – | – | –
C=C1CC=CC(C)(C)C1C/C=C(\C)C(O)CBr (stereo not drawn) | > 100 | – | > 100 | – | > 100 | 88.5 | > 100 | – | – | – | –
COc1cc(/C=C/c2cc(=O)cc(/C=C/c3ccc(O)c(OC)c3)o2)ccc1O | > 100 | > 93.3 | > 100 | > 95 | > 100 | > 100 | > 100 | – | – | – | –
COC(=O)/C=C\S/C(=C(/c1ccccc1)n1ccc(C(=O)OC)n1)c1ccccc1 | – | > 100 | > 100 | 24 | > 100 | > 100 | > 100 | – | – | – | –
COc1cc2c(cc1O)CC[n+]1cc3c(OC)c(OC)ccc3cc1-2 | > 100 | > 100 | > 100 | > 100 | > 100 | – | > 100 | – | – | – | –
COc1ccc(/C=N/Nc2nc3ccccc3c(=O)n2-c2ccccc2)c(OCc2ccccc2)c1 | > 100 | > 100 | – | > 100 | > 100 | > 100 | > 100 | > 100 | – | – | –
CCN(CC(=O)O)CC(=O)O | > 100 | > 100 | > 100 | > 100 | > 100 | – | > 100 | – | – | – | –
C/C(=N\Nc1nc2ccccc2s1)c1cccnn1 | – | – | 60 | 30.7 | > 100 | 52.5 | 89.9 | – | – | – | –
COc1cc2nc(-c3c(F)cccc3F)n(Cc3c(F)cccc3F)c2cc1Cc1c(F)cccc1F | > 100 | > 100 | > 100 | > 70.8 | 1.4 | > 100 | > 100 | – | – | – | –
COc1ccc(CN2C(=O)C(=O)N(C)C2=O)c2ccccc12 | > 10 | > 10 | – | > 10 | > 10 | > 10 | > 10 | – | – | – | –
O=C1c2c(c3c4ccc(Br)cc4oc3c3[nH]c4ccccc4c23)C(=O)N1O | 4.41 | > 100 | – | – | – | – | > 100 | – | 0.585 | 1.92 | 1.94
NS(=O)(=O)c1nnc(NSc2ccc([N+](=O)[O-])cc2)s1 | > 100 | > 100 | > 100 | – | > 100 | > 100 | > 100 | – | – | – | –
CC(C)Cc1c(C#N)c(C#N)c(N)n1Cc1ccccc1 | > 100 | > 100 | > 100 | > 100 | – | > 100 | > 100 | – | – | – | –
c1ccc(-c2ccc(N=NN3CCCC3)cc2)cc1 | > 100 | > 100 | > 100 | > 100 | – | > 100 | – | – | – | – | –
CC1=NC(C)(C)N(O)C1(C)C | > 100 | > 100 | – | > 100 | > 100 | > 100 | > 100 | – | – | – | –
CC(C)(C)OC(=O)c1ccc(NCc2cc(O)ccc2O)cc1 | 19.5 | 2.57 | 6.9 | 18.4 | 5.28 | > 34.5 | 22.1 | – | – | – | –
O=CN(O)CC(=O)O | > 100 | > 100 | > 100 | > 100 | > 100 | > 100 | > 100 | – | – | – | –
CC1=C(C(=O)NNC(=O)CC#N)CC(C(=O)NNC(=O)CC#N)=C(C)N1 | > 100 | > 100 | > 100 | > 100 | > 100 | – | > 100 | – | – | – | –
CCOC1NC(=O)c2ccccc21 (stereo not drawn) | – | > 100 | > 100 | > 100 | > 100 | > 100 | > 100 | – | – | – | –
COC(=O)[C@H]1C=C[C@H](OC2OC(COC(C)=O)C(OC(C)=O)C(OC(C)=O)C2OC(C)=O)n2c(=O)n(-c3ccccc3)c(=O)n21 (stereo partly drawn) | 17.6 | > 28.1 | 9.14 | 24.9 | 8.63 | 8.33 | 4.55 | – | – | – | –
Cc1cc2c(cc1Cl)SC(NNc1cnc3ccccc3n1)=NS2(=O)=O | 65.7 | > 100 | > 100 | > 100 | > 100 | – | > 100 | – | – | – | –
O=c1c(Cc2ccccc2)c(-c2ccccc2)[nH]n1C1=NCCN1 | > 100 | > 100 | > 100 | > 100 | – | > 100 | – | – | – | – | –
CN1c2ccccc2C(=O)NC12CCN(CC1COc3ccccc3O1)CC2 (stereo not drawn) | 98.4 | 98.8 | – | > 100 | > 100 | > 100 | > 100 | – | – | – | –
Cc1cccc(NC(Nc2cccc(C)c2)=C(C(Cl)=C(Cl)Cl)[N+](=O)[O-])c1 | > 86 | > 53 | 26.3 | > 68.6 | 41.2 | 42.8 | > 57.8 | – | – | – | –
COc1ccc(N2C(=O)C3c4[nH]c5ccccc5c4C4C(C)CCCC4C3C2=O)cc1 (stereo not drawn) | > 100 | > 100 | > 33.6 | > 77 | > 100 | > 46.8 | > 100 | – | – | – | –
Cc1ccc(-n2cc(-c3ccc(Cl)cc3)c3c2N=CN2NC(c4ccco4)=NC32)cc1 (stereo not drawn) | 29.2 | – | 99.2 | 18.1 | > 100 | 11.6 | > 100 | – | – | – | –
C(=N/Nc1ccc(-c2nc3ccccc3[nH]2)cc1)/c1c(-c2ccccc2)[nH]c2ccccc12 | – | > 100 | – | 59.9 | > 100 | 17.1 | 1.22 | – | – | – | –
OC(c1ccco1)C(F)(F)c1nc2ccccc2o1 (stereo not drawn) | > 100 | > 100 | > 100 | > 100 | > 100 | > 100 | > 100 | – | – | – | –
NNC(=O)c1cccc2c1Oc1ccccc1S2 | > 100 | > 100 | > 100 | > 100 | > 100 | > 100 | > 100 | – | – | – | –
